Data from ChEMBL document CHEMBL4311957, “Recent advances in natural antifungal flavonoids and their derivatives” (Bioorg Med Chem Lett, 2019).
Converted amounts (≈) assume the structure as drawn. Blank lines part the entries; values can stand above or below the compound they belong to.

How the values were obtained:
Nakaseomyces glabratus [1] = assay: Antifungal activity against Candida glabrata 510 by microdilution method; type: functional
[2] = system: Trichophyton mentagrophytes; assay: Antifungal activity against Trichophyton mentagrophytes IFM 46027 by microdilution method; type: functional
Candida albicans [3] = assay: Antifungal activity against Candida albicans 53 by microdilution method; type: functional
Nakaseomyces glabratus [4] = assay: Antifungal activity against Candida glabrata ATCC 90030; type: functional
Nakaseomyces glabratus [5] = assay: Antifungal activity against Candida glabrata 531 by microdilution method; type: functional
Nakaseomyces glabratus [6] = assay: Antifungal activity against Candida glabrata 493 by microdilution method; type: functional
Pichia kudriavzevii [7] = assay: Antifungal activity against Candida krusei CK25; type: functional
Nakaseomyces glabratus [8] = assay: Antifungal activity against Candida glabrata 587 by microdilution method; type: functional
Nakaseomyces glabratus [9] = assay: Antifungal activity against Candida glabrata 507 by microdilution method; type: functional
Candida albicans [10] = assay: Antifungal activity against Candida albicans 501 by microdilution method; type: functional
Candida albicans [11] = assay: Antifungal activity against Candida albicans 498 by microdilution method; type: functional
Nakaseomyces glabratus [12] = assay: Antifungal activity against Candida glabrata WT-5; type: functional
Aspergillus fumigatus [13] = assay: Antifungal activity against Aspergillus fumigatus NBRC 4400 by microdilution method; type: functional
Candida parapsilosis [14] = assay: Antifungal activity against Candida parapsilosis ATCC 22014; type: functional; conditions: Lodderomyces parapsilosis
Candida albicans [15] = assay: Antifungal activity against Candida albicans NBRC 1385 by microdilution method; type: functional
Trichophyton rubrum [16] = assay: Antifungal activity against Trichophyton rubrum NBRC 5467 by microdilution method; type: functional
Candida parapsilosis [17] = assay: Antifungal activity against Candida parapsilosis 96 by microdilution method; type: functional; conditions: Lodderomyces parapsilosis
Nakaseomyces glabratus [18] = assay: Antifungal activity against Candida glabrata 482 by microdilution method; type: functional
Candida tropicalis [19] = assay: Antifungal activity against Candida tropicalis 166 by microdilution method; type: functional
Candida parapsilosis [20] = assay: Antifungal activity against Candida parapsilosis 90/2224; type: functional; conditions: Lodderomyces parapsilosis
Pichia kudriavzevii [21] = assay: Antifungal activity against Candida krusei ATCC 6258; type: functional
Candida albicans [22] = assay: Antifungal activity against Candida albicans ATCC 10231 by microdilution method; type: functional
Candida tropicalis [23] = assay: Antifungal activity against FLC-resistant Candida tropicalis; type: functional
Candida albicans [24] = assay: Antifungal activity against Candida albicans; type: functional, organism-based
Aspergillus fumigatus [25] = assay: Antifungal activity against Aspergillus fumigatus; type: functional
Cryptococcus neoformans [26] = assay: Antifungal activity against Cryptococcus neoformans; type: functional
Candida albicans [27] = assay: Antifungal activity against Candida albicans ATCC 90028 after 18 hrs by two-fold microdilution method; type: functional; conditions: ATCC 90028, 18 h
Nakaseomyces glabratus [28] = assay: Antifungal activity against Candida glabrata ATCC 90030 after 18 hrs by two-fold microdilution method; type: functional; conditions: ATCC 90030, 18 h
Candida parapsilosis [29] = assay: Antifungal activity against Candida parapsilosis ATCC 22019 after 18 hrs by two-fold microdilution method; type: functional; conditions: Lodderomyces parapsilosis, ATCC 22019, 18 h
Nannizzia gypsea = assay: Antifungal activity against Microsporum gypseum after 5 days; type: functional; conditions: 120 h
Saccharomyces cerevisiae = assay: Antifungal activity against Saccharomyces cerevisiae ATCC 9763 after 48 hrs by CLSI-based broth microdilution method; type: functional; conditions: ATCC 9763, 48 h
[30] = system: Trichophyton mentagrophytes; assay: Antifungal activity against Trichophyton mentagrophytes after 5 days; type: functional; conditions: 120 h
Trichophyton tonsurans = assay: Antifungal activity against Trichophyton tonsurans after 5 days; type: functional; conditions: 120 h
Candida tropicalis [31] = assay: Antifungal activity against Candida tropicalis CCC 131-2000 after 48 hrs by CLSI-based broth microdilution method; type: functional; conditions: CCC 131-2000, 48 h
Candida albicans [32] = assay: Antifungal activity against Candida albicans ATCC 10231 after 48 hrs by CLSI-based broth microdilution method; type: functional; conditions: ATCC 10231, 48 h
Trichophyton rubrum [33] = assay: Antifungal activity against Trichophyton rubrum after 5 days; type: functional; conditions: 120 h
Cryptococcus neoformans [34] = assay: Antifungal activity against Cryptococcus neoformans ATCC 32264 after 48 hrs by CLSI-based broth microdilution method; type: functional; conditions: ATCC 32264, 48 h
Cryptococcus neoformans [35] = assay: Antifungal activity against Cryptococcus neoformans after 72 hrs; type: functional
Cryptococcus gattii = assay: Antifungal activity against Cryptococcus gattii after 72 hrs; type: functional, Cryptococcus gattii VGI
Trichophyton rubrum [36] = assay: Antifungal activity against Trichophyton rubrum; type: functional
Pichia kudriavzevii [37] = assay: Antifungal activity against Candida krusei 168 by microdilution method; type: functional
Candida tropicalis [38] = assay: Antifungal activity against FLC-resistant Candida tropicalis in presence of FLC; type: functional
Candida albicans [39] = assay: Antifungal activity against Candida albicans after 48 hrs by broth micro dilution method; type: functional
Cryptococcus neoformans [40] = assay: Antifungal activity against Cryptococcus neoformans after 48 hrs by broth micro dilution method; type: functional
Candida parapsilosis [41] = assay: Antifungal activity against Candida parapsilosis after 48 hrs by broth micro dilution method; type: functional; conditions: Lodderomyces parapsilosis

MIC (Candida albicans [24]): 62.4 to 150 µM
MIC (Trichophyton rubrum [36]): 11.5 µM
Structure (SMILES): C=CC(C)(C)c1cc(/C=C/C(=O)c2ccc(O)cc2)c(OC)cc1O [LICOAGROCHACONE A]
MFC (Candida albicans [24]): 150 µM (≈ 50.8 µg/mL)

MIC50 (Candida albicans [24]): 3 µg/mL (≈ 9.25 µM)
MIC50 (Cryptococcus neoformans [26]): 7 µg/mL (≈ 21.6 µM)
Structure (SMILES): CC(C)=CCc1c(O)ccc(C(=O)/C=C/c2ccc(O)cc2)c1O [ISOBAVACHALCONE]

MIC [2]: 60 µg/mL
MIC (Aspergillus fumigatus [13]): 230 µg/mL
MIC (Trichophyton rubrum [16]): 60 µg/mL
Structure (SMILES): COc1c(O)cc(O)c2c(=O)cc(-c3ccccc3)oc12 [WOGONIN]

MIC (Candida albicans [39]): 256 µg/mL (≈ 551 µM)
MIC (Cryptococcus neoformans [40]): 128 µg/mL (≈ 276 µM)
MIC (Candida parapsilosis [41]): 128 µg/mL (≈ 276 µM)
Structure (SMILES): O=c1c(O[C@@H]2O[C@H](CO)[C@H](O)[C@H](O)[C@H]2O)c(-c2ccc(O)c(O)c2)oc2cc(O)cc(O)c12 [HYPEROSIDE]

The next lines start with the compound.

Structure (SMILES): O=c1cc(-c2ccccc2)oc2ccccc12 [FLAVONE]
MIC (Nakaseomyces glabratus [1]): 62.5 µg/mL (≈ 281 µM)
MIC [2]: 60 µM
MIC (Candida albicans [3]): > 83 µg/mL
MIC (Nakaseomyces glabratus [4]): 52.7 µg/mL (≈ 237 µM)
MIC (Nakaseomyces glabratus [5]): 62.5 µg/mL (≈ 281 µM)
MIC (Nakaseomyces glabratus [6]): 62.5 µg/mL (≈ 281 µM)
MIC (Pichia kudriavzevii [7]): 2.7 µg/mL (≈ 12.1 µM)
MIC (Nakaseomyces glabratus [8]): 62.5 µg/mL (≈ 281 µM)
MIC (Nakaseomyces glabratus [9]): 62.5 µg/mL (≈ 281 µM)
MIC (Candida albicans [10]): > 83 µg/mL
MIC (Candida albicans [11]): > 83 µg/mL
MIC (Nakaseomyces glabratus [12]): 52.7 µg/mL (≈ 237 µM)
MIC (Aspergillus fumigatus [13]): 230 µM
MIC (Candida parapsilosis [14]): 5.4 µg/mL (≈ 24.3 µM)
MIC (Candida albicans [15]): 30 µM (≈ 6.67 µg/mL)
MIC (Trichophyton rubrum [16]): 120 µM
MIC (Candida parapsilosis [17]): > 83 µg/mL
MIC50 (Candida parapsilosis [17]): 13 to 104 µg/mL (≈ 58.5 to 468 µM)
MIC (Nakaseomyces glabratus [18]): 62.5 µg/mL (≈ 281 µM)
MIC (Candida tropicalis [19]): > 83 µg/mL
MIC50 (Candida tropicalis [19]): 13 to 104 µg/mL (≈ 58.5 to 468 µM)
MIC (Candida parapsilosis [20]): 5.4 µg/mL (≈ 24.3 µM)
MIC (Pichia kudriavzevii [21]): 2.7 µg/mL (≈ 12.1 µM)
MIC (Candida albicans [22]): > 83 µg/mL

Structure (SMILES): O=C(O[C@@H]1Cc2c(O)cc(O)cc2O[C@@H]1c1cc(O)c(O)c(O)c1)c1cc(O)c(O)c(O)c1 [EPIGALOCATECHIN GALLATE]
MIC (Candida tropicalis [23]): ≤ 1 µg/mL

Structure (SMILES): O=C(/C=C/c1ccc(Cl)cc1Cl)c1ccc(/N=N/c2c(O)cccc2O)cc1
MIC (Candida albicans [24]): 15 µg/mL
MIC (Aspergillus fumigatus [25]): 31.2 µg/mL (≈ 75.6 µM)

Structure (SMILES): C=C(C)CC(O)c1c(O)ccc(C(=O)/C=C/c2ccc(O)cc2)c1O (centres undefined)
MIC50 (Candida albicans [24]): 15 µg/mL (≈ 44.1 µM)
MIC50 (Cryptococcus neoformans [26]): 7 µg/mL (≈ 20.6 µM)

Structure (SMILES): CC(C)=CCc1c(O)cc(O)c2c(=O)cc(-c3ccc(O)cc3)oc12
MIC (Candida albicans [27]): 15.6 µg/mL (≈ 46.2 µM)
MIC (Nakaseomyces glabratus [28]): 15.6 µg/mL (≈ 46.2 µM)
MIC (Candida parapsilosis [29]): 15.6 µg/mL (≈ 46.2 µM)

Structure (SMILES): COc1cc(O)cc2oc(-c3cc(O)c(O)c(O)c3)c(O)c(=O)c12
MIC (Nakaseomyces glabratus [4]): 6.79 to 15.4 µg/mL (≈ 20.4 to 46.3 µM)
MIC (Nannizzia gypsea): 4 to 128 µg/mL (≈ 12 to 385 µM)
MIC (Saccharomyces cerevisiae): 31.2 µg/mL (≈ 93.9 µM)
MIC [30]: 4 to 128 µg/mL (≈ 12 to 385 µM)
MIC (Trichophyton tonsurans): 4 to 128 µg/mL (≈ 12 to 385 µM)
MIC (Candida tropicalis [31]): 31.2 µg/mL (≈ 93.9 µM)
MIC (Candida albicans [32]): 31.2 µg/mL (≈ 93.9 µM)
MIC (Trichophyton rubrum [33]): 4 to 128 µg/mL (≈ 12 to 385 µM)
MIC (Cryptococcus neoformans [34]): 31.2 µg/mL (≈ 93.9 µM)
MIC (Cryptococcus neoformans [35]): 8 to 128 µg/mL (≈ 24.1 to 385 µM)
MIC (Cryptococcus gattii): 128 µg/mL (≈ 385 µM)

Structure (SMILES): O=c1c(O)c(-c2ccccc2)oc2ccccc12 [FLAVONOL]
MIC (Nakaseomyces glabratus [1]): 3.9 to 15.6 µg/mL (≈ 16.4 to 65.5 µM)
MIC (Candida albicans [3]): > 83 µg/mL
MIC (Nakaseomyces glabratus [5]): 3.9 to 15.6 µg/mL (≈ 16.4 to 65.5 µM)
MIC (Nakaseomyces glabratus [6]): 3.9 to 15.6 µg/mL (≈ 16.4 to 65.5 µM)
MIC (Nakaseomyces glabratus [8]): 3.9 to 15.6 µg/mL (≈ 16.4 to 65.5 µM)
MIC (Nakaseomyces glabratus [9]): 3.9 to 15.6 µg/mL (≈ 16.4 to 65.5 µM)
MIC (Candida albicans [10]): > 83 µg/mL
MIC (Candida albicans [11]): > 83 µg/mL
MIC (Candida parapsilosis [17]): > 83 µg/mL
MIC (Nakaseomyces glabratus [18]): 3.9 to 15.6 µg/mL (≈ 16.4 to 65.5 µM)
MIC (Pichia kudriavzevii [37]): > 83 µg/mL
MIC (Candida tropicalis [19]): > 83 µg/mL
MIC (Candida albicans [22]): > 83 µg/mL

Structure (SMILES): O=c1cc(-c2ccc(O)c(O)c2)oc2cc(O)cc(O)c12 [LUTEOLIN]
MIC (Nakaseomyces glabratus [1]): 3.9 to 7.8 µg/mL (≈ 13.6 to 27.2 µM)
MIC [2]: 60 µM
MIC (Candida albicans [3]): > 83 µg/mL
MIC (Nakaseomyces glabratus [4]): 52.7 µg/mL (≈ 184 µM)
MIC (Nakaseomyces glabratus [5]): 3.9 to 7.8 µg/mL (≈ 13.6 to 27.2 µM)
MIC (Nakaseomyces glabratus [6]): 3.9 to 7.8 µg/mL (≈ 13.6 to 27.2 µM)
MIC (Pichia kudriavzevii [7]): 2.7 µg/mL (≈ 9.43 µM)
MIC (Nakaseomyces glabratus [8]): 3.9 to 7.8 µg/mL (≈ 13.6 to 27.2 µM)
MIC (Nakaseomyces glabratus [9]): 3.9 to 7.8 µg/mL (≈ 13.6 to 27.2 µM)
MIC (Candida albicans [10]): > 83 µg/mL
MIC (Candida albicans [11]): > 83 µg/mL
MIC (Nakaseomyces glabratus [12]): 52.7 µg/mL (≈ 184 µM)
MIC (Aspergillus fumigatus [13]): 230 µM
MIC (Candida parapsilosis [14]): 5.4 µg/mL (≈ 18.9 µM)
MIC (Trichophyton rubrum [36]): 250 µg/mL
MIC (Candida albicans [15]): 30 µM (≈ 8.59 µg/mL)
MIC (Trichophyton rubrum [16]): 120 µM
MIC (Candida parapsilosis [17]): > 83 µg/mL
MIC50 (Candida parapsilosis [17]): 13 to 104 µg/mL (≈ 45.4 to 363 µM)
MIC (Nakaseomyces glabratus [18]): 3.9 to 7.8 µg/mL (≈ 13.6 to 27.2 µM)
MIC (Candida tropicalis [19]): > 83 µg/mL
MIC50 (Candida tropicalis [19]): 13 to 104 µg/mL (≈ 45.4 to 363 µM)
MIC (Candida parapsilosis [20]): 5.4 µg/mL (≈ 18.9 µM)
MIC (Pichia kudriavzevii [21]): 2.7 µg/mL (≈ 9.43 µM)
MIC (Candida albicans [22]): > 83 µg/mL

Structure (SMILES): Oc1cc(O)c2c(c1)O[C@H](c1ccc(O)c(O)c1)[C@@H](O)C2 [CIANIDANOL]
MIC (Candida tropicalis [38]): ≤ 16 µg/mL

Structure (SMILES): Nc1ccccc1C(=O)/C=C/c1ccc([N+](=O)[O-])cc1
MIC (Trichophyton rubrum [36]): 0.5 µg/mL
